Like-named read-outs stand apart in the source and are kept apart here.
Experiments:
Assay type in all cases: in vivo
[1] = tested on: blackgrass (Alopecurus myosuroides); assay: Test C pre-/postemergence greenhouse test, plant response rating 0-100; settings: Alopecurus myosuroides; for pest or weed control at 62 g/ha: 62 g ai/ha; for pest or weed control at 125 g/ha: 125 g ai/ha; for pest or weed control at 250 g/ha: 250 g ai/ha; for pest or weed control at 500 g/ha: 500 g ai/ha;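 on all read-outs here: 0 is no effect and 100 is complete control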
Method in brief: (§1)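 Visual 0–100 control scores, taken 13 to 15 days post-application in a greenhouse, reflect treatment preemergence (seed in loam soil with sand) or postemergence (2–18 cm plants in peat moss, vermiculite medium). A dash marks no result.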

corn (Zea mays) = assay: as above; settings: Zea mays; for Corn plant response rating (crop injury, 0 = no effect, 100 = complete kill) at 250 g/ha: 250 g ai/ha; for Corn plant response rating (crop injury, 0 = no effect, 100 = complete kill) at 500 g/ha: 500 g ai/ha
Method in brief: as §1

[2] = tested on: giant foxtail (Setaria faberii); assay: as above; settings: Setaria faberi; for pest or weed control at 62 g/ha: 62 g ai/ha; for pest or weed control at 125 g/ha: 125 g ai/ha; for pest or weed control at 250 g/ha: 250 g ai/ha; for pest or weed control at 500 g/ha: 500 g ai/ha
Method in brief: as §1

[3] = tested on: johnsongrass (Sorghum halepense); assay: as above; settings: Sorghum halepense; for pest or weed control at 62 g/ha: 62 g ai/ha; for pest or weed control at 125 g/ha: 125 g ai/ha; for pest or weed control at 250 g/ha: 250 g ai/ha; for pest or weed control at 500 g/ha: 500 g ai/ha
Method in brief: as §1

[4] = tested on: lambsquarters (Chenopodium album); assay: as above; settings: Chenopodium album; for pest or weed control at 62 g/ha: 62 g ai/ha; for pest or weed control at 125 g/ha: 125 g ai/ha; for pest or weed control at 250 g/ha: 250 g ai/ha; for pest or weed control at 500 g/ha: 500 g ai/ha
Method in brief: as §1

[5] = tested on: large (Lg) crabgrass (Digitaria sanguinalis); assay: as above; settings: Digitaria sanguinalis; for pest or weed control at 62 g/ha: 62 g ai/ha; for pest or weed control at 125 g/ha: 125 g ai/ha; for pest or weed control at 250 g/ha: 250 g ai/ha; for pest or weed control at 500 g/ha: 500 g ai/ha
Method in brief: as §1

[6] = tested on: oilseed rape (Brassica napus); assay: as above
Method in brief: as §1

[7] = tested on: pigweed (Amaranthus retroflexus); assay: as above; settings: Amaranthus retroflexus; for pest or weed control at 62 g/ha: 62 g ai/ha; for pest or weed control at 125 g/ha: 125 g ai/ha; for pest or weed control at 250 g/ha: 250 g ai/ha; for pest or weed control at 500 g/ha: 500 g ai/ha
Method in brief: as §1

soybean (Glycine max) = assay: as above; settings: Glycine max; for plant injury at 62 g/ha: 62 g ai/ha; for plant injury at 125 g/ha: 125 g ai/ha; for plant injury at 250 g/ha: 250 g ai/ha; for plant injury at 500 g/ha: 500 g ai/ha
Method in brief: as §1

[8] = tested on: winter wheat (Triticum aestivum); assay: as above; settings: Triticum aestivum; for plant injury at 62 g/ha: 62 g ai/ha; for plant injury at 125 g/ha: 125 g ai/ha; for plant injury at 250 g/ha: 250 g ai/ha; for plant injury at 500 g/ha: 500 g ai/ha
Method in brief: as §1

[9] = tested on: yellow nutsedge (Cyperus esculentus); assay: as above; settings: Cyperus; for pest or weed control at 62 g/ha: 62 g ai/ha; for pest or weed control at 125 g/ha: 125 g ai/ha; for pest or weed control at 250 g/ha: 250 g ai/ha; for pest or weed control at 500 g/ha: 500 g ai/ha
Method in brief: as §1

[10] = tested on: chickweed (common chickweed, Stellaria media); assay: Test C postemergence greenhouse test, plant response rating 0-100; settings: Stellaria media, post-emergence
Method in brief: (§2)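 Postemergence spray onto 1–4-leaf potted seedlings, greenhouse incubation 13–15 days. Visual percent-control rating (0–100) against untreated plants.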

kochia (Kochia scoparia) = assay: as above; settings: Bassia scoparia, post-emergence
Method in brief: as §2

wild oat (Avena fatua) = assay: as above; settings: Avena fatua, post-emergence
Method in brief: as §2

[11] = post-emergence, Postemergence, scale 0 to 100
[12] = pre-emergence, Preemergence, read-out: Plant response rating, Blackgrass
[13] = post-emergence, Postemergence, read-out: Plant response rating (0 to 100), Foxtail, Giant
[14] = pre-emergence, Preemergence, read-out: Plant response rating, Foxtail, Giant
[15] = post-emergence, Postemergence, read-out: Plant response rating (0 to 100), Johnsongrass
[16] = pre-emergence, Preemergence, read-out: Plant response rating, Johnsongrass
[17] = post-emergence, Postemergence, read-out: Plant response rating (0 to 100), Lambsquarters
[18] = pre-emergence, Preemergence, read-out: Plant response rating, Lambsquarters
[19] = post-emergence, Postemergence, read-out: Plant response rating (0 to 100), Crabgrass, Large
[20] = pre-emergence, Preemergence, read-out: Plant response rating, Crabgrass, Large
[21] = post-emergence, Postemergence, read-out: Plant response rating (0 to 100), Pigweed
[22] = pre-emergence, Preemergence, read-out: Plant response rating, Pigweed
[23] = post-emergence, Postemergence, read-out: Plant response rating (0 to 100), Soybean
[24] = pre-emergence, Preemergence, read-out: Plant response rating, Soybean
[25] = post-emergence, Postemergence, read-out: Plant response rating (0 to 100), Wheat
[26] = pre-emergence, Preemergence, read-out: Plant response rating, Wheat
[27] = post-emergence, Postemergence, read-out: Plant response rating (0 to 100), Nutsedge, Yellow
[28] = pre-emergence, Preemergence, read-out: Plant response rating, Nutsedge, Yellow

Compound: COC(OC)(c1ccccc1)c1c[nH]nc1-c1cc(Cl)cc(Cl)c1 [Compound 13, 3-(3,5-dichlorophenyl)-4-(dimethoxyphenylmethyl)-1H-pyrazole]
- pest or weed control at 62 g/ha ([1]; post-emergence, Postemergence, read-out: Plant response rating (0 to 100), Blackgrass): 5%
- pest or weed control at 125 g/ha ([1]; post-emergence, Postemergence, scale 0 to 100, read-out: Plant response rating, Blackgrass): 0%
- pest or weed control at 250 g/ha [1, 11]: 0%
- pest or weed control at 500 g/ha [1, 11]: 0%
- pest or weed control at 62 g/ha [1, 12]: 10%
- pest or weed control at 125 g/ha [1, 12]: 10%
- pest or weed control at 250 g/ha ([1]; pre-emergence, Preemergence): 50%
- pest or weed control at 500 g/ha ([1]; pre-emergence, Preemergence): 40%
- plant injury at 62 g/ha (corn (Zea mays); post-emergence, Postemergence, 62 g ai/ha): 0%
- plant injury at 125 g/ha (corn (Zea mays); post-emergence, Postemergence, 125 g ai/ha): 0%
- Corn plant response rating (crop injury, 0 = no effect, 100 = complete kill) at 250 g/ha (corn (Zea mays); [11]): 0%
- Corn plant response rating (crop injury, 0 = no effect, 100 = complete kill) at 500 g/ha (corn (Zea mays); [11]): 0%
- Corn plant response rating (crop injury, 0 = no effect, 100 = complete kill) at 62 g/ha (corn (Zea mays); pre-emergence, Preemergence, 62 g ai/ha): 0%
- Corn plant response rating (crop injury, 0 = no effect, 100 = complete kill) at 125 g/ha (corn (Zea mays); pre-emergence, Preemergence, 125 g ai/ha): 0%
- Corn plant response rating (crop injury, 0 = no effect, 100 = complete kill) at 250 g/ha (corn (Zea mays); pre-emergence, Preemergence): 0%
- Corn plant response rating (crop injury, 0 = no effect, 100 = complete kill) at 500 g/ha (corn (Zea mays); pre-emergence, Preemergence): 0%
- pest or weed control at 62 g/ha [2, 13]: 0%
- pest or weed control at 125 g/ha [2, 13]: 0%
- pest or weed control at 250 g/ha [2, 11]: 0%
- pest or weed control at 500 g/ha [2, 11]: 0%
- pest or weed control at 62 g/ha [2, 14]: 0%
- pest or weed control at 125 g/ha [2, 14]: 0%
- pest or weed control at 250 g/ha ([2]; pre-emergence, Preemergence): 0%
- pest or weed control at 500 g/ha ([2]; pre-emergence, Preemergence): 0%
- pest or weed control at 62 g/ha [3, 15]: 0%
- pest or weed control at 125 g/ha [3, 15]: 0%
- pest or weed control at 250 g/ha [3, 11]: 0%
- pest or weed control at 500 g/ha [3, 11]: 0%
- pest or weed control at 62 g/ha [3, 16]: 0%
- pest or weed control at 125 g/ha [3, 16]: 0%
- pest or weed control at 250 g/ha ([3]; pre-emergence, Preemergence): 0%
- pest or weed control at 500 g/ha ([3]; pre-emergence, Preemergence): 0%
- pest or weed control at 62 g/ha [4, 17]: 75%
- pest or weed control at 125 g/ha [4, 17]: 80%
- pest or weed control at 250 g/ha [4, 11]: 98%
- pest or weed control at 500 g/ha [4, 11]: 98%
- pest or weed control at 62 g/ha [4, 18]: 100%
- pest or weed control at 125 g/ha [4, 18]: 100%
- pest or weed control at 250 g/ha ([4]; pre-emergence, Preemergence): 100%
- pest or weed control at 500 g/ha ([4]; pre-emergence, Preemergence): 100%
- pest or weed control at 62 g/ha [5, 19]: 0%
- pest or weed control at 125 g/ha [5, 19]: 10%
- pest or weed control at 250 g/ha [5, 11]: 10%
- pest or weed control at 500 g/ha [5, 11]: 0%
- pest or weed control at 62 g/ha [5, 20]: 0%
- pest or weed control at 125 g/ha [5, 20]: 0%
- pest or weed control at 250 g/ha ([5]; pre-emergence, Preemergence): 0%
- pest or weed control at 500 g/ha ([5]; pre-emergence, Preemergence): 0%
- Plant response rating (0 to 100), Oilseed Rape ([6]; Postemergence, 62 g ai/ha): 40
- Plant response rating (0 to 100), Oilseed Rape ([6]; Postemergence, 125 g ai/ha): 55
- Plant response rating, Oilseed Rape ([6]; Postemergence, 250 g ai/ha, scale 0 to 100): 50
- Plant response rating, Oilseed Rape ([6]; Postemergence, 500 g ai/ha, scale 0 to 100): 70
- Plant response rating, Oilseed Rape ([6]; Preemergence, 62 g ai/ha): 50
- Plant response rating, Oilseed Rape ([6]; Preemergence, 125 g ai/ha): 20
- Plant response rating, Oilseed Rape ([6]; Preemergence, 250 g ai/ha): 30
- Plant response rating, Oilseed Rape ([6]; Preemergence, 500 g ai/ha): 98
- pest or weed control at 62 g/ha [7, 21]: 75%
- pest or weed control at 125 g/ha [7, 21]: 100%
- pest or weed control at 250 g/ha [7, 11]: 100%
- pest or weed control at 500 g/ha [7, 11]: 100%
- pest or weed control at 62 g/ha [7, 22]: 90%
- pest or weed control at 125 g/ha [7, 22]: 100%
- pest or weed control at 250 g/ha ([7]; pre-emergence, Preemergence): 100%
- pest or weed control at 500 g/ha ([7]; pre-emergence, Preemergence): 100%
- plant injury at 62 g/ha (soybean (Glycine max); [23]): 0%
- plant injury at 125 g/ha (soybean (Glycine max); [23]): 0%
- plant injury at 250 g/ha (soybean (Glycine max); [11]): 0%
- plant injury at 500 g/ha (soybean (Glycine max); [11]): 10%
- plant injury at 62 g/ha (soybean (Glycine max); [24]): 0%
- plant injury at 125 g/ha (soybean (Glycine max); [24]): 0%
- plant injury at 250 g/ha (soybean (Glycine max); pre-emergence, Preemergence): 75%
- plant injury at 500 g/ha (soybean (Glycine max); pre-emergence, Preemergence): 60%
- plant injury at 62 g/ha [8, 25]: 0%
- plant injury at 125 g/ha [8, 25]: 0%
- plant injury at 250 g/ha [8, 11]: 0%
- plant injury at 500 g/ha [8, 11]: 0%
- plant injury at 62 g/ha [8, 26]: 0%
- plant injury at 125 g/ha [8, 26]: 0%
- plant injury at 250 g/ha ([8]; pre-emergence, Preemergence): 0%
- plant injury at 500 g/ha ([8]; pre-emergence, Preemergence): 0%
- pest or weed control at 62 g/ha [9, 27]: 0%
- pest or weed control at 125 g/ha [9, 27]: 0%
- pest or weed control at 250 g/ha [9, 11]: 0%
- pest or weed control at 500 g/ha [9, 11]: 0%
- pest or weed control at 62 g/ha [9, 28]: 0%
- pest or weed control at 125 g/ha [9, 28]: 0%
- pest or weed control at 250 g/ha ([9]; pre-emergence, Preemergence): 0%
- pest or weed control at 500 g/ha ([9]; pre-emergence, Preemergence): 0%
- pest or weed control at 62 g/ha ([10]; 62 g ai/ha): 100%
- pest or weed control at 125 g/ha ([10]; 125 g ai/ha): 85%
- pest or weed control at 250 g/ha ([10]; 250 g ai/ha, scale 0 to 100): 100%
- pest or weed control at 500 g/ha ([10]; 500 g ai/ha, scale 0 to 100): 100%
- pest or weed control at 62 g/ha (kochia (Kochia scoparia); 62 g ai/ha): 85%
- pest or weed control at 125 g/ha (kochia (Kochia scoparia); 125 g ai/ha): 80%
- pest or weed control at 250 g/ha (kochia (Kochia scoparia); 250 g ai/ha, scale 0 to 100): 85%
- pest or weed control at 500 g/ha (kochia (Kochia scoparia); 500 g ai/ha, scale 0 to 100): 90%
- pest or weed control at 62 g/ha (wild oat (Avena fatua); 62 g ai/ha): 0%
- pest or weed control at 125 g/ha (wild oat (Avena fatua); 125 g ai/ha): 0%
- pest or weed control at 250 g/ha (wild oat (Avena fatua); 250 g ai/ha, scale 0 to 100): 0%
- pest or weed control at 500 g/ha (wild oat (Avena fatua); 500 g ai/ha, scale 0 to 100): 5%

From US10167262B2, “Herbicidal substituted 3-arylpyrazoles” (FMC CORPORATION, priority 2014, dated 2019)
